Measured values: patent US5563277A, “Process for preparing benzyl-substituted rhodanine derivatives” (Eli Lilly and Company, priority 1994, dated 1996)

Test system: Acetic Acid Induced Colitis
Assay: Inhibition of Acetic Acid Induced Colitis
Format: in vivo, Male Sprague-Dawley rats
Conditions: rat; 30 mg/kg oral, 2 h before 2 ml of 2.5% acetic acid intracolonic enema, second dose 6 h after enema; colon lesions scored 0-4 twenty four hours later vs vehicle
Procedure: As noted above, the present invention provides a method of treating inflammatory bowel disease in mammals.
Male Sprague-Dawley rats from Charles River Laboratories, Portage, Mich. (weight approximately 250 g) were dosed orally with test compound (30 mg/kg) or vehicle (control). Two hours after dosing, each animal received 2 ml of a 2.5% acetic acid intracolonic enema via a cannula, the tip of which was placed 8 cm above the anal verge. This concentration of acetic acid produced a severe inflammatory response in the colon characterized by rectal bleeding, diarrhea, epithelial erosions and destructions of crypts and gland cells. Six hours from the enema the test animals were then given a second dose of test compound or vehicle. Twenty four hours later the test and control animals were killed and the distal ten centimeters of the colon were removed and opened longitudinally. The tissue lesions contained within the removed, opened, section of colon were scored by three independent blinded observers on a scale of 0 to 4 (zero=normal, four=worst inflammation). In each test group 5-7 rats were used. Test results from animals given test compound dissolved in vehicle were compared with test results from animals given vehicle alone in order to determine the percentage of lesion inhibition attributable to the test compound.

| Structure (SMILES) | % Inhibition (percentage of lesion inhibition) [%] |
| --- | --- |
| CC(C)(C)c1cc(CC(S)C(=O)O)cc(C(C)(C)C)c1O (stereo not shown) [3-[3,5-bis(1,1-dimethylethyl)-4-hydroxyphenyl]-2-mercaptopropanoic acid] | 18 |
| COC(=O)c1ccc(CN2CSC(Cc3cc(C(C)(C)C)c(O)c(C(C)(C)C)c3)C2=O)cc1 (stereo not shown) [5-[[3,5-bis(1,1-dimethylethyl)-4-hydroxyphenyl]methyl]-3-(carbomethoxybenzyl)-4-thiazolidinone] | 11 |
| C[C@H](c1ccccc1)N1CS[C@H](Cc2cc(C(C)(C)C)c(O)c(C(C)(C)C)c2)C1=O [(3αR,5R)-5-[[3,5-bis(1,1-dimethylethyl)-4-hydroxyphenyl]methyl]-3-(1-phenylethyl)-4-thiazolidinone] | 30 |
| C[C@H](c1ccccc1)N1CS[C@@H](Cc2cc(C(C)(C)C)c(O)c(C(C)(C)C)c2)C1=O [(3αR, 5S)-5-[[3,5-bis (1,1-dimethylethyl)-4-hydroxyphenyl]methyl]-3-(1-phenylethyl)-4-thiazolidinone] | 36 |
